The test system of assay [1] is Vα24JαQ T cell clone GW4 (nondiabetic, IL-4+). Briefly: Cytokine secretion (ELISA) from anti-CD3-activated Vα24JαQ T cell clone GW4, inhibitor studies. Format: cell-based, human. Conditions: IL-4+ clone; for secretion of IFN-γ / anti-CD3-induced IL-4 secretion: plate-bound anti-CD3 1 μg/ml, 4 h, ELISA, 10 nM wortmannin; for secretion of IFN-γ: 10 μM LY294002; for anti-CD3-induced IL-4 secretion: 10 μM LY294002, 50 μM PD98059, 50 μM SB203580; for IL-4 secretion after inhibition of PI3-kinase: anti-CD3 plus PI3-kinase inhibitor, 1 ng/ml PMA or 1 μg/ml ionomycin included. As for the experimental part: (§1) Single, Vα24-positive, CD4/8 negative single-cell sorts were grown on irradiated allogeneic feeders at 50,000 cells per well with 5,000 cells per well irradiated (5,000 rads) 721.221 lymphoblastoid cells with 1 μg/ml PHA-P, IL-2 and IL-7 each at 10 units/ml (Boehringer Mannheim) and propagated as described (Wilson et al. (1998) Nature 391: 177-181). Clones positive for Vα24 and NKR-P1A by flow cytometry and a Vα24JαQ CDR3 T cell antigen receptor sequence were assayed for cytokine secretion in C1R/CD1s restriction experiments. For cytokine secretion and inhibitor studies, Vα24JαQ T cell clones GW4 (nondiabetic) and ME10 (diabetic) at 5×10^4 cells per well were activated with plate-bound anti-CD3 or Ig control at 1 μg/ml. Secreted IL-4 and IFN-γ were assayed by ELISA after 4 h of activation as described (Wilson et al. (1998) Nature 391: 177-181). Optimal concentrations of inhibitors previously were determined by inhibitor dose-response experiments. The concentrations of inhibitors used were 10 nM wortmannin; 10 μM LY294002, 50 μM PD98059, a mitogen-activated protein kinase kinase inhibitor, and 50 μM SB203580, a p38 kinase inhibitor. The concentrations of phorbol ester and calcium ionophore used were 1 ng/ml phorbol 12-myristate 13-acetate (PMA) and 1 μg/ml ionomycin. Cyclosporin A (CsA) was used at 5 ng/ml as a negative control, due to itS ability to prevent T cell activation. Calcium flux was determined by loading cells with indo-1 as per the manufacturer's specifications (Molecular Probes), followed by activation with anti-CD3 at 10 μg/ml. Maximal calcium flux was determined by the addition of ionomycin.
(In general: An ELISA detects its analyte on a solid surface through an enzyme-linked reagent.)

The test system of assay [2] is Vα24JαQ T cell clone ME10 (diabetic, IL-4-null). Put plainly: Cytokine secretion (ELISA) from anti-CD3-activated Vα24JαQ T cell clone ME10, inhibitor studies. Format: cell-based, human. The note with it: for secretion of IFN-γ: IL-4-null clone, plate-bound anti-CD3 1 μg/ml, 4 h, ELISA, 10 nM wortmannin, 10 μM LY294002; for defect in IL-4 secretion: diabetic-derived clone ME10, 1 ng/ml PMA, 1 μg/ml ionomycin, alone or in combination. Here is the method:
as §1

Consider `O=c1cc(N2CCOCC2)oc2c(-c3ccccc3)cccc12` [LY294002], for which the “secretion of IFN-γ” value in assay [1] and in assay [2] was “no effect” throughout.

`COc1cccc(-c2cc(=O)c3ccccc3o2)c1N` [PD98059]: the “anti-CD3-induced IL-4 secretion” value in assay [1] was “no effect”.

Turning to `CCCCCCCCCCCCCC(=O)O[C@@H]1[C@@H](C)[C@@]2(O)[C@@H](C=C(CO)C[C@]3(O)C(=O)C(C)=C[C@@H]23)[C@@H]2C(C)(C)[C@]12OC(C)=O` [PMA, phorbol 12-myristate 13-acetate], the “IL-4 secretion after inhibition of PI3-kinase” value in assay [1] is on record as “rescued”. For the same compound, in assay [2], the “defect in IL-4 secretion” value was “Neither of these substances alone or in combination repaired the defect”.

In the case of `C[S+]([O-])c1ccc(-c2nc(-c3ccncc3)c(-c3ccc(F)cc3)[nH]2)cc1` (stereo not shown) [SB203580], in assay [1], the “anti-CD3-induced IL-4 secretion” value was “no effect”.

On to `C[C@H](CCC(=O)O)C[C@H](C)C[C@H](C)C(=O)/C=C(\O)[C@H](C)C[C@H](C)C/C=C/[C@@H](C)[C@@H](O)[C@@H](C)[C@@H](O)C[C@@H]1CC[C@@](C)([C@H]2CC[C@@](C)([C@@H](C)O)O2)O1` [ionomycin], for which the “IL-4 secretion after inhibition of PI3-kinase” value in assay [1] is reported as “rescued”. Also, in assay [2], the “defect in IL-4 secretion” value is given as “Neither of these substances alone or in combination repaired the defect”.

Regarding `COC[C@H]1OC(=O)c2coc3c2[C@@]1(C)C1=C(C3=O)[C@@H]2CCC(=O)[C@@]2(C)C[C@H]1OC(C)=O` [wortmannin], the “secretion of IFN-γ” value in assay [1] and in assay [2] was “no effect” in each case.

The record behind these values is US20050164233A1, “Compositions, kits and methods for identification and modulation of type I diabetes” (priority 2000, published 2005).
